Key:
[1] = Determination of critical micellar concentration by surface tension (Wilhelmy plate method); assay type: physicochemical
Procedure: The surface tension γ of a liquid in contact with air was measured at 25° C. by the Wilhelmy plate method (Prolabo TENSIMAT n3 tensometer). This consisted of plunging a vertical platinum strip (19.54 mm long) into a liquid then gradually withdrawing it, monitoring the tension exerted on the strip by the liquid film. The maximum value recorded before complete detachment of the strip represented the surface tension, expressed in mN/m. After calibrating the apparatus (calibration at two points: the zero value with the strip in air and a value of 50.2 mN/m with the strip tested with a weight of 200 mg), the surface tensions of solutions containing increasing quantities of the surfactant were recorded (measurements repeated three times). The critical micellar concentration was obtained from conventional graphs of γ=f(logC) where C represents the concentration in mol/l.
The change in surface tension γ (in mN/m) of an aqueous solution (volume=10 ml) was monitored as a function of the quantities of dissolved product (C, in Mol/l) (A=C(O)C7H15 and R2=CH3). The critical micellar concentration corresponds to the concentration above which the surface tension becomes a constant.

[2] = tested on: bovine kidney β—N-acetyl glucosaminidase (EC 3.2.1.52); assay: N-acetyl glucosaminidase (NaGase) enzymatic inhibition, pNphNAG substrate; assay type: biochemical
Procedure: The enzyme used as a reference was bovine kidney β—N-acetyl glucosaminidase (EC 3.2.1.52) (Sigma A-2415) and its substrate was p-nitrophenyl 2-acetamido-2-deoxy glucopyranoside (Acros 22941-1000) (pNphNAG). The commercially available enzyme, in the form of a suspension in a 3.2 M solution of (NH4)2SO4, was centrifuged at 13000 rpm for 5 minutes and the residue was taken up in 1 ml of water. The solution obtained was the mother enzymatic solution.
Protocol: 100 μl of the enzymatic solution diluted to 1/10 was mixed with 100 μl of pH 4.2 citrate buffer and 300 μl of inhibitor solution (or water for the reference) and incubated at 37° C. for 5 minutes in a spectrophotometer cell. After adding 500 μl of substrate (5 mM or 2.5 mM), incubation was continued for 8 minutes at 37° C. and the optical density at 400 nm was monitored. The quantity of p-nitrophenol liberated by the enzymatic reaction was determined by correlating the optical density to a calibration curve (OD at 400 nm=f([p-nitrophenol])). The N-acetyl glucosaminidase activity unit was defined as the quantity of enzyme required to liberate one μmole of p-nitrophenol per minute under the conditions cited above.
I50 is defined as the concentration of compound capable of inhibiting 50% of the enzymatic activity under the assay conditions.
We colorimetrically monitored the quantities of p-nitrophenol liberated (in 10^−3 μmol/mn) by the action of N-acetyl glucosaminidase (NaGase) on pNphNAG (2.5 mM) in the presence of increasing quantities of (i) (concentration C in mM).
In order to determine the inhibition constant K1, we used Dixon's graphical method, which consisted of plotting the inverse of the initial velocity (1 Iv0) of the enzymatic reaction against the inhibitor concentration (C, in μM) for two different substrate concentrations. The abscissa of the intersection point of the two straight lines corresponds to —K1.

[3] = target: T1, chicken lysozyme (Gallus gallus, UniProt P00698); assay: Lysozyme inhibition, Micrococcus lysodeikticus walls substrate; assay type: biochemical
T1 construct: purchased Sigma L-6876
T1 sequence (P00698 19-147): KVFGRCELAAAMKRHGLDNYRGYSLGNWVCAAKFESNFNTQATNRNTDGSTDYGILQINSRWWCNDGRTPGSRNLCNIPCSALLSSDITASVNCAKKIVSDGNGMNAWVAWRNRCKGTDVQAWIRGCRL
Procedure: The enzyme studied was 0.5 g/l chicken lysozyme (Sigma, L-6876) in a 100 mM, pH 6.5 phosphate buffer and the substrate was constituted by 17 mg/100 ml of Micrococcus lysodeikticus walls in suspension in the same buffer.
Protocol: 100 μl of enzymatic solution was diluted with 400 μl of inhibitor solution. This was left at ambient temperature for 5 or 10 minutes. 40 μl of mixture was added to 3 ml of the substrate suspension in a spectrophotometer cell. The optical density was recorded at 450 nm every 10 seconds for 3 minutes.

[4] = comparison values; cited from earlier work

SMILES: CCCCCCCC(=O)OC[C@H]1OC(=O)[C@H](NC(C)=O)[C@@H](O)[C@@H]1O [(i), 2-acetamido-2-deoxy-6—O-octanoyl-glucono-1,5-lactone]
- critical micellar concentration (CMC) ([1]; aqueous solution, 25° C.): 25 mM
- surface tension of water reduced to ([1]; reduction from 71 mN/m for concentrations of 0 to 25 mM (8.6 g/l)): 30 mN/m
- nature of inhibition ([2]; Dixon diagram): competitive
- Ki ([2]; Dixon's graphical method, substrate 2.5 mM and 5 mM, read-out: inhibition constant K1): ~3 µM
- IC50 ([2]; pNphNAG 2.5 mM, pH 4.2 citrate buffer, 37° C., read-out: I50): ~7 µM
- effect on lysozyme activity ([3]; 0.1 mg/ml lysozyme, compound 1.8 mM): No difference was detected
- affinity for lysozyme ([3]; summary): no affinity

SMILES: CCCCCCCNC(=O)OC[C@H]1O[C@H](OC)[C@H](O)[C@@H](O)[C@@H]1O [HECAMEG]
- critical micellar concentration (CMC) of commercially available glycosylated surfactants [4]: 22 mM

SMILES: CCCCCCCCO[C@@H]1O[C@H](CO)[C@@H](O)[C@H](O)[C@H]1O [octyl glucoside, n-octyl glucoside]
- critical micellar concentration (CMC) of commercially available glycosylated surfactants [4]: 18 mM

Source: patent US6624190B2, “2-acylamino-2-deoxy-glucono-1,5-lactones, a method for the production thereof, compositions containing them, and uses thereof” (Universite Pierre et Marie Curie (Paris VI), priority 1998, dated 2003)
